What all share (assay type): cell-based
The target of experiment [1] is T1, human TRPM8 (hTRPM8) (Homo sapiens, UniProt Q7Z2W7).
The target in experiment [2] is T2, rat TRPM8 (rTRPM8) (Rattus norvegicus, UniProt Q8R455).
Another experiment deals with chicken TRPM8 (cTRPM8) (Gallus gallus, UniProt A0AA95FIJ1).
Experiment [3] deals with T1, human TRPM8 (hTRPM8). The experiment is described as follows: calcium imaging.
Experiment [4] concerns the target T2, rat TRPM8 (rTRPM8). The experiment is described as follows: calcium imaging.

From PMC12830821 (Communications Biology, 2025) come the findings set out here.

Each structure is given as a SMILES string.

For orientation: EC50 means the concentration needed to bring the measured effect to its halfway point.

T1 sequence (Q7Z2W7 whole entry): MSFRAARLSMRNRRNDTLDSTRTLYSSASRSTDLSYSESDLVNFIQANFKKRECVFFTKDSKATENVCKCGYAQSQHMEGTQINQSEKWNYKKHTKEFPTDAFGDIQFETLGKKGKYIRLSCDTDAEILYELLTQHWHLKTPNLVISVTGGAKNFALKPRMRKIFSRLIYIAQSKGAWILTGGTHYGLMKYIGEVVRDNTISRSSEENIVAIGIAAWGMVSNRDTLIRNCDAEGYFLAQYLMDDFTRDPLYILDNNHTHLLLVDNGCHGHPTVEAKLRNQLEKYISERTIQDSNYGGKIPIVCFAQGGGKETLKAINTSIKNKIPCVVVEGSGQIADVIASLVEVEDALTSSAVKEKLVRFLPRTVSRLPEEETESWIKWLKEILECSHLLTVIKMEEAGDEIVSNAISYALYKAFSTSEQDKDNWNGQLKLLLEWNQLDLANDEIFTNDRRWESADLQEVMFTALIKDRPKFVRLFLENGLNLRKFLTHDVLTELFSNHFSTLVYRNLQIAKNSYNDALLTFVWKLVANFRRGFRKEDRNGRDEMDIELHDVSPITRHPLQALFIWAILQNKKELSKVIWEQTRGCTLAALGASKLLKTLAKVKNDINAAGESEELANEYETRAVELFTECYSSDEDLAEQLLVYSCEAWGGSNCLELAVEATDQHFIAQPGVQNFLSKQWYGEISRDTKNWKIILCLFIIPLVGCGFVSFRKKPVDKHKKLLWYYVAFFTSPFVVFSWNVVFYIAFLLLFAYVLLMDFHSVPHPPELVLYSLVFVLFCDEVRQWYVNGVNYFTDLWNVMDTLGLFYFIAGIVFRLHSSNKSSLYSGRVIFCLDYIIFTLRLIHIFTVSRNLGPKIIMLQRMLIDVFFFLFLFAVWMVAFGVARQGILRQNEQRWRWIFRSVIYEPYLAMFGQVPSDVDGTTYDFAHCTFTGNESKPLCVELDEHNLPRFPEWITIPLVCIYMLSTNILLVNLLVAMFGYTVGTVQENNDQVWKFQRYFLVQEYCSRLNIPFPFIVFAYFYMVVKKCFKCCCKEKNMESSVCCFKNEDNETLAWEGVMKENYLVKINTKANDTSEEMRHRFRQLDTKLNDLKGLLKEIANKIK
T2 sequence (Q8R455 whole entry): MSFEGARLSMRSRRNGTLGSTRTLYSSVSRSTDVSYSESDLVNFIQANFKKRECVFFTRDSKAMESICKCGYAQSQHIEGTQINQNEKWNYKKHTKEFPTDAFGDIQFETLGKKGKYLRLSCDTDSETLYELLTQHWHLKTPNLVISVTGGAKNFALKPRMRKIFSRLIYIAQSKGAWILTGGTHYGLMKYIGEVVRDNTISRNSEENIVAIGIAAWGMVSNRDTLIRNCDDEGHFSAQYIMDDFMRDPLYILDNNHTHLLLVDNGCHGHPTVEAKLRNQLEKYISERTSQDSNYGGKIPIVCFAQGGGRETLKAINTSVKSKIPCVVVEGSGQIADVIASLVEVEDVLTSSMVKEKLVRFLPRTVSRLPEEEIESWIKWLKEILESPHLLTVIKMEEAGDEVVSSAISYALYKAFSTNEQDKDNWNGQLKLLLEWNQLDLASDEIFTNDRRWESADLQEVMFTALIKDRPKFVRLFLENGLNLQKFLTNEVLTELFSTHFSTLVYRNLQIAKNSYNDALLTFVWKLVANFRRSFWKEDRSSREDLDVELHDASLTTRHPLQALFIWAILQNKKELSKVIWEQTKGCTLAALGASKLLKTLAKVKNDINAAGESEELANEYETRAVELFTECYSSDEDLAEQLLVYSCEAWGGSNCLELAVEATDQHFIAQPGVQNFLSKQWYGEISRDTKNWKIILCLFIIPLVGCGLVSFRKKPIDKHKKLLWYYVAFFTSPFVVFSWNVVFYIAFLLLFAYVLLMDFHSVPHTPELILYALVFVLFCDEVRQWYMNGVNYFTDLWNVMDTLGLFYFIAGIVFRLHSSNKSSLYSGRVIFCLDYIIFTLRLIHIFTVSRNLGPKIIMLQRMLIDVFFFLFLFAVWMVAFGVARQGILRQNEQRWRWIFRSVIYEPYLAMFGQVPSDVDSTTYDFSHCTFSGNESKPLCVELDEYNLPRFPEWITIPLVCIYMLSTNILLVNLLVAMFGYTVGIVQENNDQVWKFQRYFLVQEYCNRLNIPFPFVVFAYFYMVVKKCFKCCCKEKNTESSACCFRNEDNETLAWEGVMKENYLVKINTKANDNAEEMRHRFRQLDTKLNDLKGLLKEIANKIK
Chain of chicken TRPM8 (cTRPM8) (A0AA95FIJ1 1-1111): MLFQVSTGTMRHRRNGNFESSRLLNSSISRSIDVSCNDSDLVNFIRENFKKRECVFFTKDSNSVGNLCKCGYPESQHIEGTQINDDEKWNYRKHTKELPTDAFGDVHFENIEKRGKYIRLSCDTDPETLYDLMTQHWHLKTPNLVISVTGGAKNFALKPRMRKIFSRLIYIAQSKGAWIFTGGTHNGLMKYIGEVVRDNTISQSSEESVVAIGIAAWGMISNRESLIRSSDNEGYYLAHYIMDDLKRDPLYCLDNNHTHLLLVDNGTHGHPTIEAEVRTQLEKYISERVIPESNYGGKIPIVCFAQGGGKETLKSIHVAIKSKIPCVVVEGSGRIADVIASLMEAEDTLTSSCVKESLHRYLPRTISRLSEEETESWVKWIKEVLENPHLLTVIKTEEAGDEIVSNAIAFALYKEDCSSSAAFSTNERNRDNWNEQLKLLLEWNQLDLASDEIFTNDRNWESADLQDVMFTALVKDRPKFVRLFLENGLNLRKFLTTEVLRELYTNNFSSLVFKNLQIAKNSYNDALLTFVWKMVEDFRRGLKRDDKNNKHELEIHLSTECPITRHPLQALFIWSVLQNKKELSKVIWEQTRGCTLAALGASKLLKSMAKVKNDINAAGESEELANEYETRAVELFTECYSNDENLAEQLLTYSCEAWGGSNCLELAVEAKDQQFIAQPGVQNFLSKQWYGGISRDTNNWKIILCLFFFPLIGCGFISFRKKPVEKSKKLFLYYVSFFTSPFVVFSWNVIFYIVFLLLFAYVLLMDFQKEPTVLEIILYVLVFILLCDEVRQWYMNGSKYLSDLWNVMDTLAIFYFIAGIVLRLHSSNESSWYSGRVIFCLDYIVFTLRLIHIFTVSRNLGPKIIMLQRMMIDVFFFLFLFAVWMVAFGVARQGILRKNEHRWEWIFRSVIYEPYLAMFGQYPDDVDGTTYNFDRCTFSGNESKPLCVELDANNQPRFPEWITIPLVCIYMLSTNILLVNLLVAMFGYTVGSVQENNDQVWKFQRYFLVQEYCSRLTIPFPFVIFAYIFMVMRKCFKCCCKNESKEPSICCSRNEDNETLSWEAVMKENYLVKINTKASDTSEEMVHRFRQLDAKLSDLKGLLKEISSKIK

Turning to `CCCCCCCP(=O)(C(C)C)C(C)C` [C-1, 1-di(propan-2-yl)phosphorylheptane], the EC50 is 2430 nM at human TRPM8 (hTRPM8) [1], “Rat TRPM8 showed intermediate EC50 values” on rat TRPM8 (rTRPM8) [2] and 250 nM at chicken TRPM8 (cTRPM8).
Turning to `O=C1NC(c2cccc([N+](=O)[O-])c2)=CCN1c1ccccc1O` [icilin, 1-(2-hydroxyphenyl)-4-(V3-nitrophenyl)-l,2,3,6-tetrahydropyrimidine-2-one], the “calcium imaging (10 μM) in transfected HEK293T cells” value is listed as “As expected, icilin activated only the mammalian orthologs” at human TRPM8 (hTRPM8) [3] and “As expected, icilin activated only the mammalian orthologs” on rat TRPM8 (rTRPM8) [4].
